What was measured:
Test in all cases: Kinase binding assay (kinase-tagged T7 phage, affinity beads, qPCR), Kd
FGFR1 = molecular target: T1, FGFR1 (Homo sapiens, UniProt P11362); details: read-out: FGFR1 (Kd nM)
T1 construct: made in house; host or cells: E. coli (BL21-derived), T7 phage
How it was run: (§1)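 Readout was qPCR of kinase eluted from ligand-coated affinity beads after competition with test compound. Kinases were expressed as T7 phage fusions in E. coli. Binding constants were derived by non-linear least-squares Hill fitting, Hill slope −1.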

FGFR2 = molecular target: T2, FGFR2 (Homo sapiens, UniProt P21802); details: read-out: FGFR2 (Kd nM)
T2 construct: made in house; host or cells: E. coli (BL21-derived), T7 phage
T2 sequence (P21802 22-821): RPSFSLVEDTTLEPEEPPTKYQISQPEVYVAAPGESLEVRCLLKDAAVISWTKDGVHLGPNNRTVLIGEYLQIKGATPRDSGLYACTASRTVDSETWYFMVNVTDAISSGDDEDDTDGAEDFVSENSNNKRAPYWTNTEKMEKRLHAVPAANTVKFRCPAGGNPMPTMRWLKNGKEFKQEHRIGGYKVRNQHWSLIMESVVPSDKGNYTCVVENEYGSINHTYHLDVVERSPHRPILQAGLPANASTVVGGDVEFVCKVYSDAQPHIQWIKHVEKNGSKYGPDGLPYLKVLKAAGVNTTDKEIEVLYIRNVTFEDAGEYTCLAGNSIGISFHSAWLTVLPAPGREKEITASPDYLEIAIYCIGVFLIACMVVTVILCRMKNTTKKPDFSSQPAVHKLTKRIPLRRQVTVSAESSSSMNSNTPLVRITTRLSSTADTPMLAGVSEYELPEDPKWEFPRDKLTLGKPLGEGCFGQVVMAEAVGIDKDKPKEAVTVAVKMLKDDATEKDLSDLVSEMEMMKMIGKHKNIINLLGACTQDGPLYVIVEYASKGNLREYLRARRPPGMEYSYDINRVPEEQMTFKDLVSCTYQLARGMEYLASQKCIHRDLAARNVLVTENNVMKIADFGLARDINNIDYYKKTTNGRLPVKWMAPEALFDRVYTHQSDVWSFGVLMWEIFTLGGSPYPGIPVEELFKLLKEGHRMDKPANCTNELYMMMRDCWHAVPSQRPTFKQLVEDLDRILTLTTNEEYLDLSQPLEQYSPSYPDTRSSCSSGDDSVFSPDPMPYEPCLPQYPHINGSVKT
How it was run: as §1

FGFR3 = molecular target: T3, FGFR3 (Homo sapiens, UniProt P22607); details: read-out: FGFR3 (Kd nM)
T3 construct: made in house; host or cells: E. coli (BL21-derived), T7 phage
T3 sequence (P22607 23-806): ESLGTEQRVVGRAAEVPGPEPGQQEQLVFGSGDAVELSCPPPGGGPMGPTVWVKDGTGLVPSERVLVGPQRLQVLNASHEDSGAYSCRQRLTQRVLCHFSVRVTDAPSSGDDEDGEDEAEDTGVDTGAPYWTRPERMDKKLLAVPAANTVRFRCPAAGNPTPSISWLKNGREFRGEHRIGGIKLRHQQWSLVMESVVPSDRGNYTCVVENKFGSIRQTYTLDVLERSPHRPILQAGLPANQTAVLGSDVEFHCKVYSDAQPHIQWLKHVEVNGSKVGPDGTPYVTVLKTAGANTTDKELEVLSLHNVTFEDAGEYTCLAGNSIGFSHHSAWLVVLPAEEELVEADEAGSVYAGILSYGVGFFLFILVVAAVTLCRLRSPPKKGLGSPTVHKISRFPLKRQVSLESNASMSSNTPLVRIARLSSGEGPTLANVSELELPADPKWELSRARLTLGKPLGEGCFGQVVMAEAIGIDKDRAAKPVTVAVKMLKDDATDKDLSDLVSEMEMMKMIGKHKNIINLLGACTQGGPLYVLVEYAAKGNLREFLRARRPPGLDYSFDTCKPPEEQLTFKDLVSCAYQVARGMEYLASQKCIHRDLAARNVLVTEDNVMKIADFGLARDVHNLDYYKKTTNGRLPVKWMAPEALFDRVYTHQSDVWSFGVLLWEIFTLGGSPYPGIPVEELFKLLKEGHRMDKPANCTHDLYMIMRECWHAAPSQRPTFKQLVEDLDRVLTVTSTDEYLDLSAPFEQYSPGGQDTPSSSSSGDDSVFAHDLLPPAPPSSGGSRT
How it was run: as §1

FGFR3 (V555M) = molecular target: T4, FGFR3 (V555M) (Homo sapiens, UniProt P22607, V555M); details: V555M mutant; read-out: FGFR3 (V555M) (Kd nM)
T4 construct: made in house; host or cells: E. coli (BL21-derived), T7 phage
T4 sequence (P22607 23-806 V555M): as the sequence (P22607 23-806) above, with V533M counted along it
How it was run: as §1

FGFR4 = molecular target: T5, FGFR4 (Homo sapiens, UniProt P22455); details: read-out: FGFR4 (Kd nM)
T5 construct: made in house; host or cells: E. coli (BL21-derived), T7 phage
T5 sequence (P22455 22-802): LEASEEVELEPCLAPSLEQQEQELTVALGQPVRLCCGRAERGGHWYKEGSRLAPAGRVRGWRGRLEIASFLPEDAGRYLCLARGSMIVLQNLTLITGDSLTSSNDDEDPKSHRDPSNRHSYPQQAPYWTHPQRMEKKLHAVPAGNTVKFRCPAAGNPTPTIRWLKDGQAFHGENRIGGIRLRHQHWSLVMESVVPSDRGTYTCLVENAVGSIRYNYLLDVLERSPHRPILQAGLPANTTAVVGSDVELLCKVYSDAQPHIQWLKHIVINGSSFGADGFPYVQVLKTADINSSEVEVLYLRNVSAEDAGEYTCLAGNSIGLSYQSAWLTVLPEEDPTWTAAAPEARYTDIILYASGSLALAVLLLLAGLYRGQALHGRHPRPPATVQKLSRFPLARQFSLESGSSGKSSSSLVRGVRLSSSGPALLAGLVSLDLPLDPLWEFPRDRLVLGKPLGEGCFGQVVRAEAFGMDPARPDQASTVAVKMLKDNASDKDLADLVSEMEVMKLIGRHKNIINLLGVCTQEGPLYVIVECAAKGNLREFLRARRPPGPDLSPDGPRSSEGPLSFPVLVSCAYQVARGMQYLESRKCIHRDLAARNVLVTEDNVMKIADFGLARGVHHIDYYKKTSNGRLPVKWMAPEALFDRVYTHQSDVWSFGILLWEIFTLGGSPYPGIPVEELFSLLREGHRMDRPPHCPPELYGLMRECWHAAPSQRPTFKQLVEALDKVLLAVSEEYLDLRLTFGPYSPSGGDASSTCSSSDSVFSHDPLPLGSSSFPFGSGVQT
How it was run: as §1

T1 sequence (P11362 22-822): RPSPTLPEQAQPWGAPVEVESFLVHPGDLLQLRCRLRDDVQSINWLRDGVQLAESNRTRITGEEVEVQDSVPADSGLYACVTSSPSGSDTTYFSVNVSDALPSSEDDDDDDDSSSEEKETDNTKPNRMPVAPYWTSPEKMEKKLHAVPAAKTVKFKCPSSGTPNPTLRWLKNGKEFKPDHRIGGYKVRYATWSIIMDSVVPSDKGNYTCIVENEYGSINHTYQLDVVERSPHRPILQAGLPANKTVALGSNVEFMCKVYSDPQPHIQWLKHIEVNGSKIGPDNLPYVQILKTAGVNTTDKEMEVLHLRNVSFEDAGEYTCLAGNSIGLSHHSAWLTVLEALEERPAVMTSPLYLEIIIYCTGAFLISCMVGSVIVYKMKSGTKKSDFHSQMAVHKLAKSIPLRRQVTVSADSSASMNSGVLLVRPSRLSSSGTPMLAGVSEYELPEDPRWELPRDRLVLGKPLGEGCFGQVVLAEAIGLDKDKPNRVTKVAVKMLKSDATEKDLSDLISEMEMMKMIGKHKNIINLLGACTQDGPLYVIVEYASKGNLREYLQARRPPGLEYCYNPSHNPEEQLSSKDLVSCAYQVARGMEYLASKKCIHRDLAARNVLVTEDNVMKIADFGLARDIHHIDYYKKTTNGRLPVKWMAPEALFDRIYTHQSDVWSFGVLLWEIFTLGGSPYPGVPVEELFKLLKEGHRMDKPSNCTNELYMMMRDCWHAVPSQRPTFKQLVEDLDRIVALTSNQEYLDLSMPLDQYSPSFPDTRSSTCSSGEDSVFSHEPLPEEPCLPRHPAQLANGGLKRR

| Compound | Kd (FGFR1) | Kd (FGFR2) | Kd (FGFR3) | Kd (FGFR3 (V555M)) | Kd (FGFR4) |
| --- | --- | --- | --- | --- | --- |
| C[C@@H](Oc1cc2c(-c3ccc(N4CC(C)(CN5CCCC5)C4)nc3)n[nH]c2cc1F)c1c(Cl)cncc1Cl [Example 188, (R)-5-(1-(3,5-dichloropyridin-4-yl)ethoxy)-6-fluoro-3-(6-(3-methyl-3-(pyrrolidin-1-ylmethyl)azetidin-1-yl)pyridin-3-yl)-1H-indazole] | 1 to 50 nM | 1 to 50 nM | 1 to 50 nM | 1 to 50 nM | 1 to 50 nM |
| CC(C)NCC1(C)CN(c2ccc(-c3n[nH]c4cc(F)c(O[C@H](C)c5c(Cl)cncc5Cl)cc34)cn2)C1 [Example 189, (R)-N-((1-(5-(5-(1-(3,5-dichloro-pyridin-4-yl)ethoxy)-6-fluoro-1H-indazol-3-yl)pyridin-2-yl)-3-methylazetidin-3-yl)methyl)propan-2-amine] | 1 to 50 nM | 1 to 50 nM | 1 to 50 nM | 1 to 50 nM | 1 to 50 nM |
| CC(C)NCC1(C)CN(c2ccc(-c3n[nH]c4ccc(O[C@H](C)c5c(Cl)cncc5Cl)c(F)c34)cn2)C1 [Example 190, (R)-N-((1-(5-(5-(1-(3,5-dichloro-pyridin-4-yl)ethoxy)-4-fluoro-1H-indazol-3-yl)pyridin-2-yl)-3-methylazetidin-3-yl)methyl)propan-2-amine] | 300 to 1000 nM | 300 to 1000 nM | 1 to 50 nM | 1 to 50 nM | 300 to 1000 nM |
| C[C@@H](Oc1ccc2[nH]nc(-c3ccc(N4CC(C)(CN5CCCC5)C4)nc3)c2c1F)c1c(Cl)cncc1Cl [Example 191, (R)-5-(1-(3,5-dichloropyridin-4-yl)ethoxy)-4-fluoro-3-(6-(3-methyl-3-(pyrrolidin-1-ylmethyl)azetidin-1-yl)pyridin-3-yl)-1H-indazole] | 300 to 1000 nM | 300 to 1000 nM | 50 to 300 nM | 1 to 50 nM | 300 to 1000 nM |
| C[C@@H](Oc1ccc2[nH]nc(-c3ccc(N4CC(C)(NCCO)C4)nc3)c2c1F)c1c(Cl)cncc1Cl [Example 192, (R)-2-((1-(5-(5-(1-(3,5-dichloro-pyridin-4-yl)ethoxy)-4-fluoro-1H-inda-zol-3-yl)pyridin-2-yl)-3-methylazetidin-3-yl)amino)ethanol] | 300 to 1000 nM | 300 to 1000 nM | 50 to 300 nM | 1 to 50 nM | 300 to 1000 nM |
| C[C@@H](Oc1cc2c(-c3cnc(N4CC(C)(CP(C)(C)=O)C4)c(F)c3)n[nH]c2cc1F)c1c(Cl)cncc1Cl [Example 193, (R)-((1-(5-(5-(1-(3,5-dichloro-pyridin-4-yl)ethoxy)-6-fluoro-1H-indazol-3-yl)-3-fluoropyridin-2-yl)-3-methylazetidin-3-yl)methyl)dimethyl-phosphine oxide] | 1 to 50 nM | 1 to 50 nM | 1 to 50 nM | 1 to 50 nM | 1 to 50 nM |
| COc1cc2[nH]nc(-c3cnc(N4CC(C)(CS(C)(=O)=O)C4)c(F)c3)c2cc1O[C@H](C)c1c(Cl)cncc1Cl [Example 194, (R)-5-(1-(3,5-dichloropyridin-4-yl)ethoxy)-3-(5-fluoro-6-(3-methyl-3-((methyl-sulfonyl)meth-yl)azetidin-1-yl)pyridin-3-yl)-6-methoxy-1H-indazole] | 1 to 50 nM | 1 to 50 nM | 1 to 50 nM | 1 to 50 nM | 1 to 50 nM |
| C[C@@H](Oc1ccc2[nH]nc(-c3cnc(N4CC(C)(CS(C)(=O)=O)C4)nc3)c2c1)c1c(Cl)cncc1Cl [Example 195, (R)-5-(1-(3,5-dichloro-pyridin-4-yl)ethoxy)-3-(2-(3-methyl-3-((methylsulfonyl)-methyl)azetidin-1-yl)pyrimidin-5-yl)-1H-indazole] | 1 to 50 nM | 1 to 50 nM | 1 to 50 nM | 1 to 50 nM | 1 to 50 nM |
| C[C@@H](Oc1ccc2[nH]nc(-c3cnc(N4CC(C)(CS(C)(=O)=O)C4)c(F)c3)c2c1F)c1c(Cl)cncc1Cl [Example 196, (R)-5-(1-(3,5-dichloropyridin-4-yl)ethoxy)-4-fluoro-3-(5-fluoro-6-(3-methyl-3-((methyl-sulfonyl)meth-yl)azetidin-1-yl)pyridin-3-yl)-1H-indazole] | > 1000 nM | > 1000 nM | 300 to 1000 nM | 50 to 300 nM | 300 to 1000 nM |
| CNC1(C)CN(c2ncc(-c3n[nH]c4ccc(O[C@H](C)c5c(Cl)cncc5Cl)c(F)c34)cc2F)C1 [Example 197, (R)-1-(5-(5-(1-(3,5-dichloropyridin-4-yl)ethoxy)-4-fluoro-1H-indazol-3-yl)-3-fluoropyridin-2-yl)-N,3-dimethylazetidin-3-amine] | 300 to 1000 nM | > 1000 nM | 50 to 300 nM | 1 to 50 nM | 50 to 300 nM |
| C[C@H](Oc1ccc2[nH]nc(-c3cnc(N4CC(C)(N(C)C)C4)c(F)c3)c2c1)c1c(Cl)cncc1Cl [Example 201, 1-[5-[5-[(1S)-1-(3,5-dichloro-4-pyridyl)ethoxy]-1H-indazol-3-yl]-3-fluoro-2-pyridyl]-N,N,3-trimethyl-azetidin-3-amine] | 300 to 1000 nM | 300 to 1000 nM | 50 to 300 nM | 300 to 1000 nM | 300 to 1000 nM |
| C[C@H](Oc1ccc2[nH]nc(-c3cnc(N4C[C@@H](CS(C)(=O)=O)[C@@H]4C)c(F)c3)c2c1)c1c(Cl)cncc1Cl [Example 202, 5-((S)-1-(3,5-dichloropyridin-4-yl)ethoxy)-3-(5-fluoro-6-((2S,3R)-2-methyl-3-((meth-ylsulfonyl)meth-yl)azetidin-1-yl)pyridin-3-yl)-1H-indazole] | 300 to 1000 nM | > 1000 nM | 50 to 300 nM | 1 to 50 nM | 50 to 300 nM |
| C[C@H](Oc1ccc2[nH]nc(-c3cnc(N4C[C@H](CS(C)(=O)=O)[C@H]4C)c(F)c3)c2c1)c1c(Cl)cncc1Cl [Example 208, 5-((S)-1-(3,5-dichloropyridin-4-yl)ethoxy)-3-(5-fluoro-6-((2R,3S)-2-methyl-3-((meth-ylsulfonyl)meth-yl)azetidin-1-yl)pyridin-3-yl)-1H-indazole] | > 1000 nM | > 1000 nM | 50 to 300 nM | 50 to 300 nM | 300 to 1000 nM |
| Cc1ncc(Cl)c([C@@H](C)Oc2ccc3[nH]nc(-c4cnc(N5CC(C)(NC(C)C)C5)c(F)c4)c3c2)c1Cl [Example 221, 1-[5-[5-[(1R)-1-(3,5-dichloro-2-methyl-4-pyridyl)ethoxy]-1H-indazol-3-yl]-3-fluoro-2-pyridyl]-N-isopropyl-3-methyl-azetidin-3-amine] | 1 to 50 nM | 1 to 50 nM | 1 to 50 nM | 1 to 50 nM | 1 to 50 nM |
| C[C@@H](Oc1ccc2[nH]nc(-c3ccc(N4CC(C)(N5CCP(C)(=O)CC5)C4)nc3)c2c1)c1c(Cl)cncc1Cl [Example 226, (R)-1-(1-(5-(5-(1-(3,5-dichloropyridin-4-yl)ethoxy)-1H-indazol-3-yl)pyridin-2-yl)-3-methylazetidin-3-yl)-4-methyl-1,4-azaphosphinane 4-oxide] | 1 to 50 nM | 1 to 50 nM | 1 to 50 nM | 1 to 50 nM | 1 to 50 nM |
| C[C@@H](Oc1ccc2[nH]nc(-c3ccc(N4CC(C)(NCP(C)(C)=O)C4)nc3)c2c1)c1c(Cl)cncc1Cl [Example 230, 1-[5-[5-[(1R)-1-(3,5-dichloro-4-pyridyl)ethoxy]-1H-indazol-3-yl]-2-pyridyl]-N-(di-methylphosphoryl-methyl)-3-methyl-azetidin-3-amine] | 1 to 50 nM | 1 to 50 nM | 1 to 50 nM | 1 to 50 nM | 1 to 50 nM |
| C[C@@H](Oc1ccc2[nH]nc(-c3ccc(N4CC(C)(N5C[C@H]6C[C@@H]5CO6)C4)nc3)c2c1)c1c(Cl)cncc1Cl [Example 231, (1R,4R)-5-(1-(5-(5-((R)-1-(3,5-dichloropyridin-4-yl)ethoxy)-1H-indazol-3-yl)pyridin-2-yl)-3-methylazetidin-3-yl)-2-oxa-5-aza-bicyclo[2.2.1]hep-tane] | 1 to 50 nM | 1 to 50 nM | 1 to 50 nM | 1 to 50 nM | 1 to 50 nM |
| CNC1(C)CN(c2ccc(-c3n[nH]c4ccc(O[C@H](C)c5c(Cl)cncc5Cl)cc34)cn2)C1 [Example 233, (R)-1-(5-(5-(1-(3,5-dichloropyridin-4-yl)ethoxy)-1H-indazol-3-yl)pyridin-2-yl)-N,3-dimethylazetidin-3-amine] | 1 to 50 nM | 1 to 50 nM | 1 to 50 nM | 1 to 50 nM | 1 to 50 nM |
| C=CCNC1(C)CN(c2ncc(-c3n[nH]c4ccc(O[C@H](C)c5c(Cl)cncc5Cl)cc34)cn2)C1 [Example 234, (R)-N-ally1-1-(5-(5-(1-(3,5-dichloropyridin-4-yl)ethoxy)-1H-indazol-3-yl)pyrimidin-2-yl)-3-methylazetidin-3-amine] | 1 to 50 nM | 1 to 50 nM | 1 to 50 nM | 1 to 50 nM | 1 to 50 nM |
| C[C@@H](Oc1ccc2[nH]nc(-c3cnc(N4CC(C)(NCC5CC5)C4)nc3)c2c1)c1c(Cl)cncc1Cl [Example 235, (R)-N-(cyclo-propylmethyl)-1-(5-(5-(1-(3,5-dichloropyridin-4-yl)ethoxy)-1H-indazol-3-yl)pyrimidin-2-yl)-3-methylazetidin-3-amine] | 1 to 50 nM | 1 to 50 nM | 1 to 50 nM | 1 to 50 nM | 1 to 50 nM |
| CC(C)NC1(C)CN(c2ncc(-c3n[nH]c4ccc(O[C@H](C)c5c(Cl)cncc5Cl)cc34)cn2)C1 [Example 236, (R)-1-(5-(5-(1-(3,5-dichloropyridin-4-yl)ethoxy)-1H-indazol-3-yl)pyrimidin-2-yl)-N-isopropyl-3-methylazetidin-3-amine] | 1 to 50 nM | 1 to 50 nM | 1 to 50 nM | 1 to 50 nM | 1 to 50 nM |
